Measured values taken from ChEMBL document CHEMBL1128992, “A Non-peptidic photoactivatable antagonist for mapping the antagonist binding site of the tachykinin NK2 receptor” (Bioorg Med Chem Lett, 1996).
pIC50: −log10 of the molar value.

Target: T1, Substance-K receptor (Homo sapiens, UniProt P21452)
T1 sequence (P21452 whole entry): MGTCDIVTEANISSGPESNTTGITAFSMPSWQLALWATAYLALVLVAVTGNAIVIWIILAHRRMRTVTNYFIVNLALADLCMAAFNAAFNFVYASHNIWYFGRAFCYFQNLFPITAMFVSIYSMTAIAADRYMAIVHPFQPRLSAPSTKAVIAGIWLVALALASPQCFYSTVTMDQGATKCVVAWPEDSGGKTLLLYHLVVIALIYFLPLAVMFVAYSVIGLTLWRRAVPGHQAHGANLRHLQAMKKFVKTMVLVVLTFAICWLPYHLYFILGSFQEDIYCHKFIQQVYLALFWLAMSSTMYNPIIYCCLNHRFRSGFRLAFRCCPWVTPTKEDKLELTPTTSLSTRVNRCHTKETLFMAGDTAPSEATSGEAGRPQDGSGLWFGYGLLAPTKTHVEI
Assay: Binding affinity was determined against human NK2 receptor in CHO cells using [125I]neurokinin A as radioligand
Format: cell-based

| Structure (SMILES) | pIC50 |
| --- | --- |
| CN(CC(CCN1CCC(O)(c2ccccc2)CC1)c1ccc(Cl)c(Cl)c1)C(=O)c1cccc(C2(C(F)(F)F)N=N2)c1 (racemic) | 8.17 |
| CC(=O)NC1(c2ccccc2)CCN(CC[C@H](CN(C)C(=O)c2ccccc2)c2ccc(Cl)c(Cl)c2)CC1 (racemic) [SAREDUTANT] | 9.10 |
